Assays:
[1] = tested on: constitutively GA-deficient transgenic dwarf soybean line 719; assay: Field trial of seed coating application rates, GA-deficient soybean; assay type: in vivo, Glycine max; settings: for 719 Height, cm, Heavy soil / 719 Height, cm, Light soil / No. 719 Emerged, Heavy soil / No. 719 Emerged, Light soil / No. 719 Not Rescued, Heavy soil / No. 719 Not Rescued, Light soil: seed coating
Procedure: GA3, GA3-3-acetate, GA5, GA9, and GA12 are evaluated in further field trials. […] The objectives of these tests are: 1) to determine if seed coatings, as compared to imbibition, of GA compounds facilitate rescue of constitutively GA-deficient transgenic dwarf soybeans (transgenic lines 719−2 plus 719+17) without causing elongation of wild-type soybeans (line A4922), and 2) to determine the seed treatment rate ranges for each of the selected GA compounds that would provide rescue of constitutively GA-deficient transgenic dwarf soybeans (transgenic lines 719−2 plus 719+17) without causing elongation of wild-type soybeans (line A4922).
Seeds are treated with GA3, GA5, GA9, GA12, and GA3-3-acetate at rates of 0, 0.1, 1, 10, and 100 μg/seed. These GA compounds are applied to the seeds using a Hege 11 seed treater (Hans-Ulrich Hege GmbH & Co., Waldenburg, Germany); 100% acetone is used as the carrier solvent. The amount of liquid introduced into the seed treater is six fluid ounces/100 lbs seed rate. In addition, GA12 is tested at 50 μg/seed. The untreated control (UTC) consisted of dry, untreated seeds. Seeds of constitutively GA-deficient transgenic dwarf soybean line 719 and wild-type A4922 are sown in both light and heavy soil. The planting depth is 0.5 to 1 inch (1.27 to 2.54 cm); watering is via drip irrigation. The experiment is carried out in three repetitions, using 25 seeds/plot (one five foot (152.4 cm) long row) for line 719, and 75 seeds/plot (two eight foot (243.8 cm) rows) for line A4922. Observations included total emergence, number of dwarfs not rescued, uniformity in plant height, average plant height, visual notes, and digital photos.
In all the experiments reported in Tables 17-24, treatments are replicated three times in a randomized block design. Data are analyzed using LSD (least significant difference) 0.05 probability using the PRM 5.0 Statistical Analysis Program (SAS Institute, North Carolina).

[2] = Distribution of 14C label in soybean plant parts after seed treatment
Procedure: ^14C-radiolabelled compounds are obtained from Lew Mander (Australian National University). ^14C-GA3 is dissolved in water:ethanol, 80:20, v/v; ^14C-GA9 and ^14C-GA12 are dissolved in 100% ethanol. Seeds of Asgrow 3237 soybeans are treated separately with solutions of each of the ^14C-radiolabelled compounds (1.7-6.8 μg; 10-40 ppm; 111,000-2,000,000 dpm/seed) by placing one to four μl of the dosing solution directly on the seed coat (^14C-GA3, GA9, and GA12), or on the hilum portion of the seed (^14C-GA3). After evaporation of the carrier solvent (approx. one hour), the treated seed is planted in containers containing approximately 30 gm of Metromix-350, and transferred to a growth chamber. Plants are grown under a 12 hour light/12 hour dark regime at 92° F. (33° C.)and 75% humidity. The pattern of uptake and translocation of ^14C-radioactivity in treated seed is monitored up to 12 days past initial treatment. For most experiments, three replicate plants are harvested at one hour after treatment, one day after treatment (DAT), two DAT, three DAT, six or seven DAT, and 12 DAT. At the time of each harvest, plants are divided into leaves, epicotyl, cotyledon, hypocotyl, and roots. The level of ^14C-radioactivity in different plant parts is determined by extraction of plant tissues with aqueous methanol and scintillation counting. The extent of metabolism of the ^14C-labelled GA compounds in planta is determined by HPLC analysis of plant extracts. The details are as follows.
The general extraction procedure consisted of blending the plant parts in a high speed polytron tissue homogenizer for 1-5 minutes with 10-20 ml of ice-cold methanol:water, 80:20, v/v, followed by vacuum filtration through a Whatman glass fiber filter. The filter cake is re-extracted as necessary using the procedure described above until an insignificant amount of radioactivity is removed. Prior to combining the extracts from each sample, aliquots are weighed and analyzed by liquid scintillation counting (LSC) to determine the amount of extracted radioactivity in each extract. Aliquots of the air-dried filter cakes are combusted and analyzed by LSC in order to determine the amount of non-extracted radioactivity. The extracts are combined and, when necessary, concentrated by rotary evaporation at a bath temperature of less than 35° C. to a small volume for analysis by HPLC to determine the extent of metabolism of the ^14C-labelled GA compounds in planta.

[3] = tested on: AX5/antisense CPScc soybean line 46 (R2); assay: Hilum seed treatment of epicotyl-intensive GA-deficient soybean, seedling height (FIG. 42); assay type: in vivo, Glycine max; settings: 8 DAP
Procedure: These studies are performed on soybean plants engineered to express their GA-deficient phenotype throughout the life cycle via the use of the constitutive FMV promoter (line 719, FMV/antisense CPScc). In contrast to the constitutive FMV promoter, the peak activity of the AX5 promoter is developmentally restricted to the soybean seedling axis (epicotyl) three to five days after the start of imbibition, with limited expression beyond the seedling stage of development. Soybean lines transformed with the […] cassette therefore display an epicotyl-intensive dwarf phenotype. In these lines, inhibition of the hypocotyl is modest; most of the total height reduction in these plants is due to shortening of the epicotyl. Rescue of […] soybean plants therefore presents different technical challenges from those required for rescue of constitutively GA-deficient transgenic dwarf soybean lines containing the […] construct. […] Seed from both lines is produced from greenhouse-grown plants. […] If multiple applications are made to seeds, the previous application is allowed to dry before a subsequent application is made. […] (29° C.) day and 75° F. night (24° C.). Pots are watered as necessary by overhead hand watering. Hypocotyl and epicotyl measurements are made for each plant at various stages of plant growth. […] The results are shown in FIG. 42, where the error bar represents +/-two times the standard error of the mean (n=12-15). […] The upper dashed horizontal line represents the total height of untreated wild-type […] soybeans. Measurements are made 8 days after planting.

Row | Compound | 719 Height, cm, Heavy soil ([1]; 10 μg compound per seed) | 719 Height, cm, Light soil ([1]; 10 μg compound per seed) | No. 719 Emerged, Heavy soil ([1]; 10 μg compound per seed) | No. 719 Emerged, Light soil ([1]; 10 μg compound per seed) | No. 719 Not Rescued, Heavy soil ([1]; 10 μg compound per seed) | No. 719 Not Rescued, Light soil ([1]; 10 μg compound per seed) | 719 Height, cm, Heavy soil ([1]; 100 μg compound per seed) | 719 Height, cm, Light soil ([1]; 100 μg compound per seed) | No. 719 Emerged, Heavy soil ([1]; 100 μg compound per seed) | No. 719 Emerged, Light soil ([1]; 100 μg compound per seed) | No. 719 Not Rescued, Heavy soil ([1]; 100 μg compound per seed) | No. 719 Not Rescued, Light soil ([1]; 100 μg compound per seed) | ^14C Label Distribution (% of dose), Cotyledon ([2]; 3 DAP) | ^14C Label Distribution (% of dose), Hypocotyl ([2]; 3 DAP) | ^14C Label Distribution (% of dose), Root ([2]; 3 DAP) | ^14C Label Distribution (% of dose), Cotyledon ([2]; 12 DAP) | ^14C Label Distribution (% of dose), Epicotyl ([2]; 12 DAP) | ^14C Label Distribution (% of dose), Hypocotyl ([2]; 12 DAP) | ^14C Label Distribution (% of dose), Leaves ([2]; 12 DAP) | ^14C Label Distribution (% of dose), Root ([2]; 12 DAP) | further results
1 | C=C1C[C@]23C[C@@]1(O)CC[C@H]2[C@@]12C=C[C@H](O)[C@@](C)(C(=O)O1)[C@H]2[C@@H]3C(=O)O [GA3, gibberellic acid] | 10.3 a cm | 11.7 bc cm | 18.3 a-e | 21.0 abc | 0 f | 0 | 9.3 ab cm | 13.7 a cm | 8.0 f | 16.7 cd | 0 f | 0 | 85 % of dose | 1.5 % of dose | 0.5 % of dose | 72 % of dose | 0.2 % of dose | 1.4 % of dose | 0.9 % of dose | 2.8 % of dose | 719 Height, cm, Heavy soil ([1]; 0.1 μg compound per seed): 5.7 cd cm; 719 Height, cm, Light soil ([1]; 0.1 μg compound per seed): 5.7 ef cm; No. 719 Emerged, Heavy soil ([1]; 0.1 μg compound per seed): 19.7 a-d; No. 719 Emerged, Light soil ([1]; 0.1 μg compound per seed): 21.3 abc; No. 719 Not Rescued, Heavy soil ([1]; 0.1 μg compound per seed): 0 f; No. 719 Not Rescued, Light soil ([1]; 0.1 μg compound per seed): 1; 719 Height, cm, Heavy soil ([1]; 1 μg compound per seed): 5.3 cde cm; 719 Height, cm, Light soil ([1]; 1 μg compound per seed): 5.7 ef cm; No. 719 Emerged, Heavy soil ([1]; 1 μg compound per seed): 17.3 b-e; No. 719 Emerged, Light soil ([1]; 1 μg compound per seed): 20.7 abc; No. 719 Not Rescued, Heavy soil ([1]; 1 μg compound per seed): 0.3 ef; No. 719 Not Rescued, Light soil ([1]; 1 μg compound per seed): 0; effect on line 46 total height [3]: rescued AX5/asCPScc soybean line 46 total height, with some hypocotyl over-elongation
2 | C=C1C[C@]23C[C@H]1CC[C@H]2[C@@]12CCC[C@@](C)(C(=O)O1)[C@H]2[C@@H]3C(=O)O [GA9] | 4.0 d-i cm | 5.0 efg cm | 16.3 b-e | 21.7 ab | 0.7 ef | 0.3 | 8.3 ab cm | 10.3 cd cm | 20.3 a-d | 19.0 a-e | 0 f | 0 | 60 % of dose | 6.8 % of dose | 1.3 % of dose | 54 % of dose | 0.1 % of dose | 1.0 % of dose | 0.3 % of dose | 1.0 % of dose | appearance of line 719 seedlings ([1]; 0.1 and 1 μg per seed): appeared unusually abnormal; activity relative to GA3, GA3-3-acetate and GA5 [3]: approximately ten times less active; effect on line 46 total height [3]: rescued AX5/asCPScc soybean line 46 total height, with some hypocotyl over-elongation
3 | C=C1C[C@]23C[C@H]1CC[C@H]2[C@]1(C)CCC[C@@](C)(C(=O)O)[C@H]1[C@@H]3C(=O)O [GA12] | 3.0 f-i cm | 2.3 cm·h | 22.3 ab | 21.0 ab | 1.7 def | 1.7 efg | 2.7 ghi cm | 2.0 cm·h | 20.7 a-d | 21.3 ab | 2.0 de | 1 | 55 % of dose | 1.7 % of dose | 3.5 % of dose | 45 % of dose | 0.2 % of dose | 0.9 % of dose | 0.7 % of dose | 3.0 % of dose | 719 Height, cm, Heavy soil ([1]; 0.1 μg compound per seed): 4.0 d-i cm; 719 Height, cm, Light soil ([1]; 0.1 μg compound per seed): 4.0 g·cm; No. 719 Emerged, Heavy soil ([1]; 0.1 μg compound per seed): 20.7 a-d; No. 719 Emerged, Light soil ([1]; 0.1 μg compound per seed): 22.3 a; No. 719 Not Rescued, Heavy soil ([1]; 0.1 μg compound per seed): 4.3 bc; No. 719 Not Rescued, Light soil ([1]; 0.1 μg compound per seed): 6.3 b; 719 Height, cm, Heavy soil ([1]; 1 μg compound per seed): 3.3 e-i cm; 719 Height, cm, Light soil ([1]; 1 μg compound per seed): 4.0 g·cm; No. 719 Emerged, Heavy soil ([1]; 1 μg compound per seed): 21.0 abc; No. 719 Emerged, Light soil ([1]; 1 μg compound per seed): 22.0 a; No. 719 Not Rescued, Heavy soil ([1]; 1 μg compound per seed): 5.3 ab; No. 719 Not Rescued, Light soil ([1]; 1 μg compound per seed): 3.7 cd; 719 Height, cm, Heavy soil ([1]; 50 μg compound per seed): 3.3 e-i cm; 719 Height, cm, Light soil ([1]; 50 μg compound per seed): 2.3 cm·h; No. 719 Emerged, Heavy soil ([1]; 50 μg compound per seed): 23.7 a; No. 719 Emerged, Light soil ([1]; 50 μg compound per seed): 22.3 a; No. 719 Not Rescued, Heavy soil ([1]; 50 μg compound per seed): 5.0 bc; No. 719 Not Rescued, Light soil ([1]; 50 μg compound per seed): 3.0 cde; effect on line 46 total height [3]: reduced plant height; line 46 seedling height ([3]; concentrations up to 40 μg/seed): did not increase line 46 seedling height

From patent US6723897B2, “Methods for controlling gibberellin levels” (Monsanto Technology, LLC, priority 1998, dated 2004)
